One experiment has as its target T1, human Y1 receptor (Homo sapiens, UniProt P25929).
T1 construct: expressed in transfected cells
T1 sequence (P25929 1-384): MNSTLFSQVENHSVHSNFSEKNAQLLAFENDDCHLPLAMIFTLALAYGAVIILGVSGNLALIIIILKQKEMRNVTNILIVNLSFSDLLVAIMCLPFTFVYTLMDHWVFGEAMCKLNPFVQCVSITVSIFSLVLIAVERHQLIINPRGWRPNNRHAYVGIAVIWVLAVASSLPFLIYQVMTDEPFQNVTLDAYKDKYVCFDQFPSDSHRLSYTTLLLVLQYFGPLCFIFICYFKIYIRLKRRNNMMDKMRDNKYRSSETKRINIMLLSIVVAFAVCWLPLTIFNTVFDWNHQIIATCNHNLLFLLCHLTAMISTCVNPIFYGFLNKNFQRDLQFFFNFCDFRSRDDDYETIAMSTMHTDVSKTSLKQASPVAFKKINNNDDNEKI
The experiment is described as follows: Radioligand binding to cloned human Y1 receptor (125I-PYY). As to conditions: cloned human Y1, stably transfected cells, read-out: Binding Affinity (K1 (nM) vs. 125I-PYY) Human Receptor Y1.

For a further experiment, the target named is T2, human Y2 receptor (Homo sapiens, UniProt P49146).
T2 construct: expressed in transfected cells
T2 sequence (P49146 1-381): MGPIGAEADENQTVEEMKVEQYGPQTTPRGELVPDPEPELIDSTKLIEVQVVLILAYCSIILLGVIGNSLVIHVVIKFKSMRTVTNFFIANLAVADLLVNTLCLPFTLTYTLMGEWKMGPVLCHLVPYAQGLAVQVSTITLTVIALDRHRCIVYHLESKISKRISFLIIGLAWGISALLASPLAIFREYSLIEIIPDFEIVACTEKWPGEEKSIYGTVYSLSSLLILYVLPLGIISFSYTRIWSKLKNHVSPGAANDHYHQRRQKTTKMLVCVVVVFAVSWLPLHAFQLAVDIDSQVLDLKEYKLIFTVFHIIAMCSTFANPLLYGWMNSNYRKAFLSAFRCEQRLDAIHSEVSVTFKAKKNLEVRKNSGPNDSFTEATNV
The experiment is described as follows: Radioligand binding to cloned human Y2 receptor (125I-PYY). As to conditions: cloned human Y2, stably transfected cells, read-out: Binding Affinity (K1 (nM) vs. 125I-PYY) Human Receptor Y2. Here is the method:
(§1) Human Y1, human Y2, and rat Y5 receptors were co-transfected with a G-418 resistant gene into the human embryonic kidney 293 cell line by a calcium phosphate transfection method (Cullen, 1987). Stably transfected cells were selected with G-418. Human Y4 and human Y5 receptors were similarly transfected into mouse fibroblast LM(tk−) cells and NIH-3T3 cells.
(§2) Binding of the compounds of the present invention to the human Y1, Y2, Y4 and Y5 receptors was evaluated using stably transfected 293 or LM(tk−) cells as described above. Stably transfected cell lines which may be used for binding assays include, for example, for the human Y1 receptor, 293-hY1-5 (deposited Jun. 4, 1996, under ATCC Accession No. CRL-12121), for the human Y2 receptor, 293-hY2-10 (deposited Jan. 27, 1994, under ATCC Accession No. CRL-11537), for the human Y4 receptor, L-hY4-3 (deposited Jan. 11, 1995, under ATCC Accession No. CRL-11779), and for the human Y5 receptor, L-hY5-7 (deposited Nov. 15, 1995, under ATCC Accession No. CRL-11995).
(§3) Membranes were harvested from COS-7 cells 48 hours after transient transfection. Adherent cells were washed twice in ice-cold phosphate buffered saline (138 mM NaCl, 8.1 mM Na2HPO4, 2.5 mM KCl, […], 0.9 mM CaCl2, 0.5 mM MgCl2, pH 7.4) and lysed by sonication in ice-cold sonication buffer (20 mM Tris-HCl, 5 mM EDTA, pH 7.7). Large particles and debris were cleared by low speed centrifugation (200 x g, 5 min, 4° C.). Membranes were collected from the supernatant fraction by centrifugation (32,000 x g, 18 min, […] ), washed with ice-cold hypotonic buffer, and collected again by centrifugation (32,000 x g, 18 min, 4° C.). […] Protein concentration was measured by the Bradford method (Bradford, 1976) using Bio-Rad Reagent, with bovine serum albumin as a standard. Membranes were held on ice for up to one hour and used fresh, or flash-frozen and stored in liquid nitrogen.
(§4) Membranes were prepared similarly from 293, LM(tk−), and NIH-3T3 cells. To prepare membranes from baculovirus infected cells, 2×10^7 Sf21 cells were grown in 150 mm tissue culture dishes and infected with a high-titer stock of hY5BB3. Cells were incubated for 2-4 days at 27° C., no CO2 be fore harvesting and membrane preparation as described above.

The target in another experiment is T3, human Y4 receptor (Homo sapiens, UniProt P50391).
T3 construct: expressed in transfected cells
The experiment is described as follows: Radioligand binding to cloned human Y4 receptor (125I-PYY). As to conditions: cloned human Y4, stably transfected cells, read-out: Binding Affinity (K1 (nM) vs. 125I-PYY) Human Receptor Y4. Here is the method: as §1, §2, §3, §4

In a further experiment the target is T4, human Y5 receptor (Homo sapiens, UniProt Q15761).
T4 construct: expressed in transfected cells
T4 sequence (Q15761 1-445): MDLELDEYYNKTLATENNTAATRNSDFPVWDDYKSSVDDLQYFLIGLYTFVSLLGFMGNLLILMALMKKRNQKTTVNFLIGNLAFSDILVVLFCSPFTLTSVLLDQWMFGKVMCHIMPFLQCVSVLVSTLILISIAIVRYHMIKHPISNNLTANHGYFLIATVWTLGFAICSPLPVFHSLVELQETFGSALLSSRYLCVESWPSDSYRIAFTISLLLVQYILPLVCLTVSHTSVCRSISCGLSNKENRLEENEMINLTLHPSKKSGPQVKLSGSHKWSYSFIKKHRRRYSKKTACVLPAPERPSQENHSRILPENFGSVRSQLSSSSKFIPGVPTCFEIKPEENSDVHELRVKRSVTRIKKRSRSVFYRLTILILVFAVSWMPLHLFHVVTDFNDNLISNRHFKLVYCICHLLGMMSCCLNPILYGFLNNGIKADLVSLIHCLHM
The experiment is described as follows: Radioligand binding to cloned human Y5 receptor (125I-PYY). Particulars: cloned human Y5, stably transfected cells, read-out: Binding Affinity (K1 (nM) vs. 125I-PYY) Human Receptor Y5.

A further experiment has as its target T5, cloned human Y5 receptor (Homo sapiens, UniProt Q15761).
T5 construct: expressed in transfected cells
T5 sequence (Q15761 1-445): T4 sequence (Q15761 1-445)
The experiment is described as follows: Functional assay: block of NPY-induced inhibition of cAMP accumulation in forskolin-stimulated LM(tk-) cells (radioimmunoassay of cAMP). Particulars: antagonism of NPY-induced inhibition of cAMP accumulation, forskolin-stimulated LM(tk-) cells with human Y5; at least three experiments. Type of experiment: cell-based.

Experiment [1] concerns food intake in food-deprived rats. The experiment is described as follows: Food intake in food-deprived rats (24 h food deprivation). Type of experiment: in vivo, rat. More on the design: concentration or dose not given beside the values. As to conditions: rats after 24 h food deprivation; two hours after administration of test compound.
Experiment [2] has as its system NPY-induced feeding behavior in satiated rats. The experiment is described as follows: NPY-induced food intake in satiated rats. Type of experiment: in vivo, rat. Particulars: compound 10 mg/kg i.p., then 300 pmole NPY i.c.v., 4 hours after NPY, in g (unit assumed). Here is the method:
For these determinations food intake maybe measured in normal satiated rats after intracerebroventricular application (i.c.v.) of NPY in the presence or absence of the test compound. Male Sprague Dawley rats ciba-Geigy AG, Sisseln, Switzerland weighing between 180 g and 220 g are used for all experiments. The rats are individually housed in stainless steel cages and maintained on an 11:13 h light-dark cycle (lights off at 18:00 h) at a controlled temperature of 21-23° C. at all times. Water and food (NAFAG lab chow pellets, NAFAG, Gossau, Switzerland) are available ad libidum.
Rats under pentobarbital anesthesia are stereotaxically implanted with a stainless steel guide cannula targeted at the right lateral ventricle. Stereotaxic coordinates, with the incisor bar set −2.0 mm below interaural line, are: −0.8 mm anterior and +1.3 mm lateral to bregma. The guide cannula is placed on the dura. […]
Food intake may be measured by placing preweighed pellets into the cages at the time of NPY injection. […] The food intake of animals treated with test compound may be calculated as a percentage of the food intake of control animals, i.e., animals treated with vehicle. Alternatively, food intake for a group of animals subjected to the same experimental condition may be expressed as the mean ±S.E.M. Statistical analysis is performed by analysis of variance using the Student-Newman-Keuls test. […]

In the next experiment the target is T6, human 5HT1F receptor (Homo sapiens, UniProt P30939).
T6 construct: expressed in transfected cells
T6 sequence (P30939 1-366): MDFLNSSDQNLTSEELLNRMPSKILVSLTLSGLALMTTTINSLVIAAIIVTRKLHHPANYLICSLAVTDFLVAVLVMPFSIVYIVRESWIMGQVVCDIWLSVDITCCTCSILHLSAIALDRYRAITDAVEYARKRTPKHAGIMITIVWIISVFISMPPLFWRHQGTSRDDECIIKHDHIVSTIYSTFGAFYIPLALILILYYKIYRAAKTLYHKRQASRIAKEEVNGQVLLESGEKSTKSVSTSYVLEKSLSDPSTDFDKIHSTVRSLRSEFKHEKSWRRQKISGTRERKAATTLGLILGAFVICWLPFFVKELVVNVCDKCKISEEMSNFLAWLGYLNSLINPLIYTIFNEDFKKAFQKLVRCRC
The experiment is described as follows: Binding to human 5HT1F receptor ([3H]serotonin). Particulars: cloned human receptor; read-out: Receptor (pKi) 5HT1F (converted). Here is the method:
(§5) 5HT1Dα, 5HT1Dβ, 5HT1E, 5HT1F Receptors: LM(tk−) clonal cell lines stably transfected with the genes encoding each of these 5HT receptor subtypes were prepared as described above. The cell line for the 5HT1Dα, receptor, designated as Ltk−8-30-84, was deposited on Apr. 17, 1990, and accorded ATCC Accession No. CRL 10421. The cell for the 5HT1Dβ receptor, designated as Ltk−11, was deposited on Apr. 17, 1990, and accorded ATCC Accession No. CRL 10422. The cell line for the 5HT1E receptor, designated 5 HT1E-7, was deposited on Nov. 6, 1991, and accorded ATCC Accession No. CRL 10913. The cell line for the 5HT1F receptor, designated L-5-HT1F, was deposited on Dec. 27, 1991, and accorded ATCC Accession No. ATCC 10957. Membrane preparations comprising these receptors were prepared as described below, and suspended in 50 mM Tris-HCl buffer (pH 7.4 at 37° C.) containing 10 mM MgCl2, 0.2 mM EDTA, 10 μM pargyline, and 0.1% ascorbate. The binding of compounds was determined in competition binding assays by incubation for 30 minutes at 37° C. in the presence of 5 nM [^3H) serotonin. Nonspecific binding was determined in the presence of 10 μM serotonin. The bound radioligand was separated by filtration through GF/B filters using a cell harvester.

In another experiment the target is T7, human 5HT1E receptor (Homo sapiens, UniProt P28566).
T7 construct: expressed in transfected cells
The experiment can be described thus: Binding to human 5HT1E receptor ([3H]serotonin). Particulars: cloned human receptor; read-out: Receptor (pKi) 5HT1E (converted). Here is the method: as §5

What is called Kb is the equilibrium dissociation constant of an antagonist, usually derived from a functional assay.

T3 sequence (P50391 whole entry): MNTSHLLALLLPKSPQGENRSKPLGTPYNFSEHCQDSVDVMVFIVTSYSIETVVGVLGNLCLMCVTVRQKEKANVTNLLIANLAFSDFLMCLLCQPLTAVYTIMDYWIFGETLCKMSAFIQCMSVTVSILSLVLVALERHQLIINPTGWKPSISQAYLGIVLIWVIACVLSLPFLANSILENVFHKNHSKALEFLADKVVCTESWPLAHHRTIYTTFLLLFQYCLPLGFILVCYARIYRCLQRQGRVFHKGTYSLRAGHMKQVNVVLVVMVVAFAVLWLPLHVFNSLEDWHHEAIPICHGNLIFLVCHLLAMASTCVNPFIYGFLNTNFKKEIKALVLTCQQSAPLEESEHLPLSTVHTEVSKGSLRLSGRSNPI
T7 sequence (P28566 whole entry): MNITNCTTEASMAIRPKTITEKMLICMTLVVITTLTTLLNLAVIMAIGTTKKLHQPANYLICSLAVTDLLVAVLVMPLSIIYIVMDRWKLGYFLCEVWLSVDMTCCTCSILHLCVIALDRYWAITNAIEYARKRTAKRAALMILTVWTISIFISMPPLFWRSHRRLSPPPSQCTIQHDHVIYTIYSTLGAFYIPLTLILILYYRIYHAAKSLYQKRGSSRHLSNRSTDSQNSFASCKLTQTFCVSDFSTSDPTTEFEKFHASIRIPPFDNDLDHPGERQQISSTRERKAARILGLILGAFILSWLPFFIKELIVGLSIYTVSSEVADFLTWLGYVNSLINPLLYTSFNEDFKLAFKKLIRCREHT
Method for human Y1 receptor: Membranes were harvested from COS-7 cells 48 hours after transient transfection. […] Large particles and debris were cleared by low speed centrifugation (200 x g, 5 min, 4° C.). […] Membranes were held on ice for up to one hour and used fresh, or flash-frozen and stored in liquid nitrogen.
Incubations were terminated by filtration over Whatman GF/C filters (pre-coated with 1% polyethyleneimine and air-dried before use), followed by washing with 5 mL of ice-cold binding buffer.

As for `Cl.Cl.O=[N+]([O-])c1ccccc1S(=O)(=O)NCC1CCC(CNCc2ccnc3ccccc23)CC1` (centres unmarked) [Example 45], the Ki amounted to 48700 nM at human Y1 receptor, 5280 nM on human Y2 receptor, 63100 nM on human Y4 receptor and 28 nM at human Y5 receptor. The compound further registered a Kb on cloned human Y5 receptor of 0.049 µM. The “Two-hour food intake, percentage of intake compared to control rats, Mean (%)” value (from here on “Two-hour food intake, percentage of intake … (%)”) in [1] is 84%.

Consider `Cl.O=S(=O)(NCC1CCC(CNCC2CCc3ccccc3C2)CC1)c1ccc2ccccc2c1` (centres unmarked) [Example 31], for which the “NPY-induced cumulative food intake (NPY + compound), mean ± S.E.M.” value in experiment [2] came to 3.8 ± 0.4. In addition, in experiment [1], the “Two-hour food intake, percentage of intake … (%)” value was 27%.

Turning to `Cl.O=S(=O)(NCC1CCC(CNCc2cccc3ccccc23)CC1)c1ccccc1C(F)(F)F` (centres unmarked) [Example 37], the Ki at human Y1 receptor turned out to be 14500 nM; at human Y2 receptor, 617 nM; at human Y4 receptor it was 21500 nM; at human Y5 receptor, 26 nM. For the same compound, at cloned human Y5 receptor, the Kb came to 0.038 µM. For the same compound, in experiment [1], the “Two-hour food intake, percentage of intake … (%)” value turned out to be 58%.

With `O=S(=O)(NC[C@H]1CC[C@H](CNC(CO)Cc2ccc(Cl)cc2)CC1)c1cccc2ccccc12` (relative stereo) [Example 77, Naphthalene-1-sulfonic Acid trans-(4-{[2-(4-Chloro-phenyl)-1-hydroxymethyl-ethylamino]-methyl}-cyclohexylmethyl)-amide], the Ki at human Y2 receptor is 851 nM; at human Y4 receptor, 13100 nM; at human 5HT1F receptor it was at least 5.01 µM; on human 5HT1E receptor, at least 5.01 µM. The “Two-hour food intake, percentage of intake … (%)” value in [1] was determined as 32%.

Consider `Cl.O=S(=O)(NCC1CCC(CNCc2ccc3ccccc3c2)CC1)c1ccccc1C(F)(F)F` (centres unmarked) [Example 38], for which the Ki was determined as 13000 nM on human Y1 receptor, 1610 nM on human Y2 receptor, 18500 nM at human Y4 receptor and 9.8 nM on human Y5 receptor. In addition, the Kb at cloned human Y5 receptor worked out at 0.016 µM. For the same compound, the “Two-hour food intake, percentage of intake … (%)” value in experiment [1] stood at 80%.

Regarding `Cl.Cl.O=[N+]([O-])c1ccccc1S(=O)(=O)NCC1CCC(CNCc2ccc3ccccc3n2)CC1` (centres unmarked) [Example 44], the Ki at human Y1 receptor was determined as 23700 nM; at human Y2 receptor, 58200 nM; at human Y4 receptor, 19300 nM. For the same compound, in [1], the “Two-hour food intake, percentage of intake … (%)” value is 73%.

These data come from patent US6734182B2, “Aryl sulfonamides and sulfamide derivatives and uses thereof” (Synaptic Pharmaceutical Corporation, priority 1995, dated 2004).
